The test system of assay [1] is PAF-induced [^14 C]-serotonin release, rabbit platelets. Briefly: Inhibitory action on PAF-induced [^14 C]-serotonin release. The conditions noted are these: Oryctolagus cuniculus, Platelet, PAF 1×10^-9 M; for inhibition at 0.2 µM: test compound 2 × 10^-7 M; for inhibition at 0.05 µM: test compound 5 × 10^-8 M; for inhibition at 0.005 µM: test compound 5 × 10^-9 M. The format is cell-based, rabbit (New Zealand white). As for the experimental part: Inhibitory action on PAF-induced [^14 C]-serotonin release
Blood was collected from the hearts of conscious New Zealand white male rabbits weighing 2 to 3 kg. The blood was immediately subjected to a centrifuge at 1400 rpm for 10 minutes to obtain platelet rich plasma(PRP).PRP was incubated with a trace mount of [^14 C]-serotonin for 20 minutes at 22° C. Prelabelled platelets were prepared by centrifugation at 3500 rpm for 10 minutes. The test compound was added to 80 μl of [^14 C] serotonin-labeled platelets in plastic test tubes, and the mixture was incubated for 2 minutes. PAF (1×10^-9 M) was then added to the reaction mixture and incubated for additional 2 minutes at which time 10 μl of cold formaldehyde was added to stop the reactions. The tubes were immediately cooled to 4° C. and centrifuged at 12000 rpm for 2 minutes. The supernatants (80 μl) were assayed for percentage of [^14 C] serotonin release by the conventional methods of measuring ^14 C counts.

The target of assay [2] is T1, PAF receptor (rabbit platelet membranes) (Oryctolagus cuniculus, UniProt G1TEI7).
T1 construct: Rabbit platelets were prepared by centrifugation and washing; tissue Pel-Freez (Rogers, AR); host or cells: rabbit platelets (washed, from citrated whole blood; lysed membranes)
T1 sequence (G1TEI7 1-342): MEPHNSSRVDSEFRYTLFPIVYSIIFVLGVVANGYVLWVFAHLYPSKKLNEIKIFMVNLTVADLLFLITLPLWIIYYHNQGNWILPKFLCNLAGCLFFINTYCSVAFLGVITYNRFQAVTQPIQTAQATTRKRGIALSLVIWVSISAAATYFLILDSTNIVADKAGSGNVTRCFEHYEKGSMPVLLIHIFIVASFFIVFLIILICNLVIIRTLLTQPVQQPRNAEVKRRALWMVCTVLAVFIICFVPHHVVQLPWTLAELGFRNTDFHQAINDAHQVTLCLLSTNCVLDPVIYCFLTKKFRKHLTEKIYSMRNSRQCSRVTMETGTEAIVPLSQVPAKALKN
Briefly: PAF Receptor Binding Assay. To be noted: 0.6 nM [^3 H]C18 -PAF, 60 minutes, room temperature, calculated as IC50/2. As for the experimental part:
PAF Receptor Binding Assay Citrated whole rabbit blood was obtained from Pel-Freez(Rogers, AR). Rabbit platelets were prepared by centrifugation and washing. The platelets were lysed by freeze-thawing and sonification; Platelet membranes were prepared by centrifugation and washing. Final membrane preparation were stored frozen in 10 mM Tris/5 mM MgCl2 /2 mM EDTA (TME buffer, pH 7.0) with 0.25M sucrose added for membrane stabilization. […] The final volume of the assay was 100 μl. […] The […] and removed. The bound radioactivity was quantitated with a Berthold TLC-Linear Analyzer model LB2842. […] Experiments were repeated at least once. […] Ki values of inhibitory binding constants were calculated according to the methods of the literature[Cheng et al., Biochem.

Assay [3] concerns PAF-induced platelet aggregation, rabbit platelet-rich plasma. Briefly: Inhibitory action on PAF-induced platelet aggregation. The format is cell-based, rabbit (New Zealand white). To be noted: Oryctolagus cuniculus, rabbit PRP, PAF 5×10^-9 M, 37° C. As for the experimental part: Inhibitory action on PAF-induced platelet aggregation Blood was collected from the […] of conscious New Zealand white male rabbits weighing 2 to 3 kg using citric acid as an anticoagulant (one volume pan of 3% citric acid relative to 9 volume parts of the whole blood). […] PRP was diluted with PPP to adjust the number of platelets to about 3×10^5 /μl. […] Platelet aggregation was then examined by means of turbidimetry [Born, Nature, 194, 927(1962)] with dual channel aggegometer (Chrono-Log. Corp., Havertown, Pa.). As the control, physiological saline without test sample was used. The platelet aggregation inhibiting activities of the test sample are expressed as IC50, that is the concentration of the compound at which 50% of the aggregation is inhibited.

Each structure is given as a SMILES string.

For orientation: inhibition means the drop in the measured response relative to a control, in per cent. What is called Ki is the dissociation constant of the complex between target and ligand, obtained from inhibition or displacement. As a reminder, the IC50 is the concentration that gives 50% inhibition. A higher IC50 goes with a need for much substance.

Regarding `CCCCCCCCCCCCCCCCOC[C@H]1C[C@H](COC(=O)N(Cc2cccc[n+]2CC)C(C)=O)O1` (relative stereo) [Example 2, trans-2-[[N-Acetyl-N-[[[4-[(hexadecyloxy)methyl]-2-oxetanyl]methoxy]carbonyl]amino]methyl]-1-ethyl-pyridinium iodide], in assay [1], the inhibition at 0.2 µM was 98%, at 0.05 µM the inhibition was 93% and 0.005 µM produced 44% inhibition. Further, the inhibitory constant (Ki) in assay [2] was 14.7 nM. Also, in assay [3], the midpoint of inhibition, the IC50, lay at 57 nM.
Molecule `CCCCCCCCCCCCCCCCCCNC(=O)OCC1(COC(=O)CCCCC[n+]2ccsc2)COC1` [Example 13, 3-[5-[[[3-[[(Octadecylcarbamoyl)oxy]methyl]-3-oxetanyl]methoxy]carbonyl]pentyl]thiazolium bromide] showed an inhibition at 0.2 µM in assay [1] of 92%. In assay [2], the Ki is 30.5 nM. In assay [3], this molecule showed a half-maximal inhibitory concentration (IC50) of 382 nM.
With `CCCCCCCCCCCCCCCCCCNC(=O)OCC1(COC(=O)N(Cc2cccc[n+]2CC)C(C)=O)CCC1` [Example 14, 2-[[N-Acetyl-N-[[[1-[[(octadecylcarbamoyl)oxy]methyl]-1-cyclobutyl]methoxy]carbonyl]amino]methyl]-1-ethyl-pyridinium iodide], in assay [1], testing at 0.2 µM gave an inhibition of 99%, at 0.05 µM the inhibition was 98% and 0.005 µM produced 18% inhibition. Also, the Ki in assay [2] is 6.6 nM. The concentration for half-maximal inhibition (IC50) in assay [3] was 118 nM.
In assay [1], `CCCCCCCCCCCCCCCCCCNC(=O)OCC1(COC(=O)N(Cc2cccc[n+]2CC)C(C)=O)COC1` [Example 6, 2-[[N-Acetyl-N-[[[3-[[(octadecylcarbamoyl)oxy]methyl]-3-oxetanyl]methoxy]carbonyl]amino]methyl]-1-ethyl-pyridinium iodide] had an inhibition at 0.2 µM of 98% and an inhibition at 0.05 µM of 96%.
As for `CCCCCCCCCCCCCCCCOC[C@H]1C[C@@H](COC(=O)N(Cc2cccc[n+]2CC)C(C)=O)O1` (relative stereo) [Example 1, cis-2-[[N-Acetyl-N-[[[2-[(hexadecyloxy)methyl]-4-oxetanyl]methoxy]carbonyl]amino]methyl]-1-ethyl-pyridinium iodide], the inhibition at 0.05 µM in assay [1] is 51%. Besides, the Ki in assay [2] was 21.2 nM. In addition, the concentration for half-maximal inhibition (IC50) in assay [3] is 95 nM.
Turning to `CCCCCCCCCCCCCCCCOCC1(COC(=O)CCCCC[n+]2ccccc2)COC1` [Example 10, N-[5-[[[3-[(Hexadecyloxy)methyl]-3-oxetanyl]methoxy]carbonyl]pentyl]pyridinium bromide], in assay [1], the inhibition at 0.2 µM is 86% and the inhibition at 0.05 µM amounted to 43%.
Consider `CCCCCCCCCCCCCCCCCCNC(=O)OC[C@@H]1C[C@H](COC(=O)N(Cc2cccc[n+]2CC)C(C)=O)O1` (relative stereo) [Example 3, cis-2-[[N-Acetyl-N-[[[4-[[(octadecylcarbamoyl)oxy]methyl]-2-oxetanyl]methoxy]carbonyl]amino]methyl]-1-ethyl-pyridinium iodide], for which, in assay [1], at 0.2 µM the inhibition was 97% and the inhibition at 0.005 µM is 58%.
Regarding `CCCCCCCCCCCCCCCCCCNC(=O)OCC1(COC(=O)CCCCC[n+]2ccccc2)COC1` [Example 12, N-[5-[[[3-[[(Octadecylcarbamoyl)oxy]methyl]-3-oxetanyl]methoxy]carbonyl]pentyl]pyridinium bromide], in assay [1], testing at 0.2 µM gave an inhibition of 94% and at 0.05 µM the inhibition was 58%.
